Laboratory results published in US20240189317A1, “ANTIVIRAL COMPOSITIONS AND METHODS” (AI Therapeutics, Inc., priority 2021, published 2024).
Read-outs that look alike come from different tables or passages of the source.

Test system: SARS-CoV-2 (USA-WA1/2020)
Assay type: cell-based
Details: Caco-2 cells, vs DMSO controls

Cc1cccc(/C=N/Nc2cc(N3CCOCC3)nc(OCCc3ccccn3)n2)c1 [Apilimod]
Percent Infection (Exp 1) (apilimod 31.25 nM single agent): 93.632%
Percent Infection (Exp 2) (apilimod 31.25 nM single agent): 74.342%
Percent Infection (Exp 1) (apilimod 62.5 nM single agent): 75.308%
Percent Infection (Exp 2) (apilimod 62.5 nM single agent): 53.914%
Percent Infection (Exp 1) (apilimod 125 nM single agent): 35.618%
Percent Infection (Exp 2) (apilimod 125 nM single agent): 37.259%
Percent Infection (Exp 1) (apilimod 250 nM single agent): 11.935%
Percent Infection (Exp 2) (apilimod 250 nM single agent): 29.685%
Percent Infection (Exp 1) (apilimod 500 nM single agent): 12.267%
Percent Infection (Exp 2) (apilimod 500 nM single agent): 18.730%
Percent Infection (Exp 1) (apilimod 1000 nM single agent): 4.524%
Percent Infection (Exp 2) (apilimod 1000 nM single agent): 2.968%
Percent Infection (Exp 1) (apilimod 2000 nM single agent): 0.591%
Percent Infection (Exp 2) (apilimod 2000 nM single agent): 0.297%
